Assay results as given in patent publication US20050129725A1, “Method of controlling pest and pest control agent” (KURARAY CO., LTD., priority 2002, published 2005).
Where two headings read alike, the source gives them in different places.

Tests used:
[1] = system: adult female Culex pipiens; assay: Repellent effect of treated wire net bags (mouse as blood source) on blood sucking by Culex pipiens; type: in vivo; conditions: summary of Experimental Example 1
Procedure: A 20-mesh soft wire net was cut into 15×16 cm, folded into two, and open two sides (longitudinal and transverse sides) were folded to give a bag. Four of these bags were prepared. Farnesylacetone (mixing ratio:[…]/trans-trans form=15/50/35) was dissolved in ethanol at 0.2 wt % and 1 wt % and one wire net bag each was immersed in one of the obtained solutions for about 10 sec. The bag was taken out from the solution, and air-dried at room temperature for 30 min to give a farnesylacetone treated wire net bag. The wire net bag treated with farnesylacetone 0.2 wt % solution was taken as Example 1, and the wire net bag treated with farnesylacetone 1 wt % solution was taken as Example 2. […] The wire net bags of Examples 1 and 2 and Comparative Example 1 were evaluated in Experimental Example 1 for the repellent effect on adult female Culex pipiens using an untreated wire net bag as a control.
50 to 70 female adult Culex pipiens at 10-15 days after eclosion and having high blood sucking activity were released inside each of four adult raising cages (30×40×30 cm). […] As a blood sucking result, the number of the test Culex pipiens with swollen abdomen was counted at a certain time intervals after the start of the test, which number was divided by the number of test Culex pipiens to calculate a blood sucking rate (%). […]

[2] = Concentration of farnesylacetone in the dog kennel; type: physicochemical; conditions: kennel sprayed every week with 1% solution in ethanol; detection limit
Procedure: (§1) A dog raised in a dog kennel (vaporization area expanding means), the inside of which was sprayed every week with a 1% solution of farnesylacetone in ethanol with a spray container (reservoir means), and a dog raised in a dog kennel, the inside of which was sprayed every week with ethanol alone, were observed and compared for their behaviors for 30 min every day for one week. The dog raised in the farnesylacetone treated dog kennel scratched its body twice a day, but the dog raised in the dog kennel free of farnesylacetone treatment scratched its body 13 times a day. The concentration of farnesylacetone in the dog kennel was not more than 1 μg/L (detection limit). It is assumed that the fleas parasitic in dogs were repelled and decreased by farnesylacetone.

Blattella germanica = assay: Box shelter lurking place choice test with coated paper sheets; type: in vivo; conditions: summary of Experimental Example 2
Procedure: A mixture of farnesylacetone (mixing ratio:cis-cis form/cis-trans form and trans-cis form/trans-trans form=15/50/35) and vitamin E (antioxidant) (weight ratio 99:1) was dissolved in methanol at 0.06 wt % and 0.3 wt %. The obtained solutions were coated on a 0.26 mm thick paper sheet at 167 g/l m^2, and air-dried to evaporate methanol, whereby sheets having a farnesylacetone coating at 0.1 g/m^2 and 0.5 g/m^2 were obtained and used as Example 3 and Example 4, respectively. Both a farnesylacetone coating sheet prepared on the very day and one left open and uncontrolled by hanging in a room at a room temperature of 21-24° C. for 2 weeks, where ventilation rate was 10-15 times per 1 hour, were evaluated in Experimental Examples 2-4 for repellence performance against the larvae of Blattella germanica, Camponotus japonicus and Anthrenus verbasci using untreated paper sheet as a control.
One box shelter (length 8 cm×side 12.5 cm×height 2 cm, made of white corrugated cardboard) having one entrance (width 1 cm×height 2 cm) and one of the test-day-made products of Example 3 and 4, the products left open and uncontrolled for 2 weeks of Example 3 and 4 and a control paper sheet, which was adhered to an interior floor surface, was prepared for each test sample. […]

[3] = Measurement of farnesylacetone concentration in the air (gas chromatography, FID); type: physicochemical; conditions: 1 hr
Procedure: Farnesylacetone (1 mL) was placed in a 50 mL sample bottle, and a large magnetic stirring bar capable of rotating the air as well was placed therein. […] Thereafter, the gas in the sample bottle was taken by 5 mL with a gas tight syringe, and using gas chromatography with an FID detector, the concentration of farnesylacetone was measured by the absolute calibration method.
(§2) Farnesylacetone (1 mL) was placed in a 50 mL sample bottle, and a large magnetic stirring bar capable of rotating the air as well was placed therein The bottle was placed neck-deep in a […] with rotation, and heated for 1 hr to fill the inside of the sample bottle with farnesylacetone vapor. Thereafter, the gas in the sample bottle was taken by 5 mL with a gas tight syringe, and using gas chromatography with an FID detector, the concentration of farnesylacetone was measured by an absolute calibration method. […] Almost simultaneously, the gas (5 mL) in the sample bottle was taken again, a propeller was set in a 10 L beaker, the gas was added into the sealed beaker, the air in the beaker was stirred with the propeller for 10 min to dilute the gas 2,000-fold, whereby gas containing […] farnesylacetone was obtained. […]

[4] = Odor and discomfort of sampled farnesylacetone gas in human
Procedure: Farnesylacetone (1 mL) was placed in a 50 mL sample bottle, and a large magnetic stirring bar capable of rotating the air as well was placed therein. The bottle was placed neck-deep in an oil bath at 130° C. with rotation, and heated for 1 hr to saturate the inside of the sample bottle with farnesylacetone vapor. Thereafter, the gas in the sample bottle was taken by 5 mL with a gas tight syringe, and using gas chromatography with an FID detector, the concentration of farnesylacetone was measured by the absolute calibration method.
as §2

Coptotermes formosanus = type: in vivo; conditions: for number of Coptotermes formosanus in test section: 30 ants in total; for number of Coptotermes formosanus in control section: untreated half of same schale
Procedure: Three sets of experiment systems were prepared wherein quartz sand allowed to absorb a suitable amount of water was spread on a 90 mm diameter schale in a thickness of 1 mm, a 5 mm width groove was formed on a diameter line to divide the dish into two, three 8 mm diameter circular filters impregnated with a suitable amount of a solution of farnesylacetone or phytone in acetone and air-dried were placed in one test section, and three untreated circular filters were placed in the control section.
In each experiment system were each released 10 worker ants of Coptotermes formosanus and raised in an incubator at 28° C., humidity 70%. After a certain time, the number of Coptotermes formosanus in the test section and the control section was counted. The repellence rate and mortality were calculated from the following formulas. Repellence rate={1−(number of the ants in the test section/number of the survived ants)}×100 (%) Mortality=number of the dead ants/30×100 (%)

fleas parasitic in dogs = assay: Scratching behaviour of dog raised in sprayed dog kennel; type: in vivo; conditions: kennel sprayed every week with 1% solution in ethanol; observed 30 min every day for one week
Procedure: as §1

For `CCN(CC)C(=O)c1cccc(C)c1` [DEET, N,N-diethyl-m-tolamide, reference compound], the “course of repellent effect of treated wire net bag on Culex pipiens” value [1] was “decreases with time”.
With `CC(=O)CC/C=C(\C)CC/C=C(\C)CCC=C(C)C` [farnesylacetone] the “concentration of farnesylacetone in the dog kennel” value [2] was “not more than 1 μg/L”, the “time for which treated paper sheet maintained Blattella germanica control effect” value (Blattella germanica) was “at least 2 weeks” and the “concentration of farnesylacetone in the gas” value ([3]; sample bottle filled with vapor, water bath at 60° C.) was 20 µg/L. For the same compound, the “concentration of farnesylacetone in the gas” value ([3]; sample bottle saturated with vapor, oil bath at 130° C.) was 20,000 μg/L, the “odor and effect of sampled gas on human” value ([4]; gas containing 20,000 μg/L) was “had a strong odor, caused cough when inhaled in a large amount, and provoked uncomfortable feeling in human” and the “odor of sampled gas detected by human” value ([4]; gas further diluted 10-fold, printed as containing 0.01 μg/L) was “scarcely had an odor detected by human”. For the same compound, the “death (number of the dead ants)” value (Coptotermes formosanus; concentration 1%, 1 day later) was 1, the repellence rate (Coptotermes formosanus; concentration 1%, 1 day later) was 86% and the “number of Coptotermes formosanus in test section” value (from here on “number … in test section”) (Coptotermes formosanus; concentration 1%, 1 day later) was 4. The “number of Coptotermes formosanus in control section” value (from here on “number … in control section”) (Coptotermes formosanus; concentration 1%, 1 day later) was 25, the “death (number of the dead ants)” value (Coptotermes formosanus; concentration 1%, 4 days later) was 1 and the repellence rate (Coptotermes formosanus; concentration 1%, 4 days later) was 100%. The “number … in test section” value (Coptotermes formosanus; concentration 1%, 4 days later) was 0, the “number … in control section” value (Coptotermes formosanus; concentration 1%, 4 days later) was 29 and the “death (number of the dead ants)” value (Coptotermes formosanus; concentration 5%, 1 day later) was 2. The repellence rate (Coptotermes formosanus; concentration 5%, 1 day later) was 100%, the “number … in test section” value (Coptotermes formosanus; concentration 5%, 1 day later) was 0 and the “number … in control section” value (Coptotermes formosanus; concentration 5%, 1 day later) was 28. For the same compound, the “death (number of the dead ants)” value (Coptotermes formosanus; concentration 5%, 4 days later) was 3, the repellence rate (Coptotermes formosanus; concentration 5%, 4 days later) was 96% and the “number … in test section” value (Coptotermes formosanus; concentration 5%, 4 days later) was 1. For the same compound, the “number … in control section” value (Coptotermes formosanus; concentration 5%, 4 days later) was 26, the “course of repellent effect of treated wire net bag on Culex pipiens” value [1] was “maintained at a high level even after 18 hr” and the “dog scratched its body (times a day)” value (fleas parasitic in dogs) was “twice a day”.
With `CC(=O)CCCC(C)CCCC(C)CCCC(C)C` (stereo not drawn) [phytone] the “death (number of the dead ants)” value (Coptotermes formosanus; concentration 10%, 1 day later) was 0, the repellence rate (Coptotermes formosanus; concentration 10%, 1 day later) was 63% and the “number … in test section” value (Coptotermes formosanus; concentration 10%, 1 day later) was 11. For the same compound, the “number … in control section” value (Coptotermes formosanus; concentration 10%, 1 day later) was 19, the “death (number of the dead ants)” value (Coptotermes formosanus; concentration 50%, 1 day later) was 1 and the repellence rate (Coptotermes formosanus; concentration 50%, 1 day later) was 86%. The “number … in test section” value (Coptotermes formosanus; concentration 50%, 1 day later) was 4 and the “number … in control section” value (Coptotermes formosanus; concentration 50%, 1 day later) was 25.
